Assay results from US10940139B2, “Compounds that interact with the Ras superfamily for the treatment of cancers, inflammatory diseases, rasopathies, and fibrotic disease” (Shy Therapeutics LLC, priority 2017, dated 2021).

Tests used:
Assay in all cases: Ras GTP binding domain inhibition assay (labeled GTP)
KRas G12D mutant protein = KRas G12D mutant protein (Homo sapiens (Human), UniProt P01116, G12D); settings: 20 μM compound; KRas G12D; read-out: % Inhibition at 20 μM of K-Ras mutant and wild-type protein, KRas G12D
KRas G12D mutant protein, sequence (P01116-2 other isoform, or with tags, fused parts or gaps G12D): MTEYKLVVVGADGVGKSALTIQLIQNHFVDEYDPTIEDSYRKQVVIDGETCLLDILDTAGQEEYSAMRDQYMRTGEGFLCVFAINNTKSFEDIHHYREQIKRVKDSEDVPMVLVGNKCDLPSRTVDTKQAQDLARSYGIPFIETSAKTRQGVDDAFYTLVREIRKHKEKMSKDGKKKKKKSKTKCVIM

KRas wild type = KRas wild type (Homo sapiens (Human), UniProt P01116); settings: 20 μM compound; KRas wild type; read-out: % Inhibition at 20 μM of K-Ras mutant and wild-type protein, KRas wild type
KRas wild type, sequence (P01116-2 other isoform, or with tags, fused parts or gaps): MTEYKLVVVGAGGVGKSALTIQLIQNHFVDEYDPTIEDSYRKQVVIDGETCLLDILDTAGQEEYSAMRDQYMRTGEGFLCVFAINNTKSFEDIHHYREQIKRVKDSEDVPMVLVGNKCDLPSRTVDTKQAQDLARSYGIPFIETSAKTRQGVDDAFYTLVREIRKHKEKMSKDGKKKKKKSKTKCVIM
Outline: (§1)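 His-tagged KRas protein (3-10 μg/ml) was captured overnight at 4° C on nickel-coated wells in 50 mM Tris pH 7.5, 1 mM MgCl2, 1 mM DTT. Bound labeled GTP was read by fluorescence after washing.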

KRas G12C mutant = KRas G12C mutant (Homo sapiens (Human), UniProt P01116, G12C); settings: 20 μM compound; KRas G12C; read-out: % Inhibition at 20 μM of K-Ras mutant and wild-type protein, KRas G12C
KRas G12C mutant, sequence (P01116-2 other isoform, or with tags, fused parts or gaps G12C): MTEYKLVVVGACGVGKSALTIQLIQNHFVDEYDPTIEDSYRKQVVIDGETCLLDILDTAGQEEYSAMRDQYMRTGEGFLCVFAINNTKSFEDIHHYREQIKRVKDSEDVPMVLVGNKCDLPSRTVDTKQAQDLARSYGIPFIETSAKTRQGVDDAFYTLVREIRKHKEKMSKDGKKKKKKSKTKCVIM
Outline: as §1

| SMILES | inhibition at 20 µM (KRas G12D mutant protein) [%] | inhibition at 20 µM (KRas wild type) [%] | inhibition at 20 µM (KRas G12C mutant) [%] |
| --- | --- | --- | --- |
| CCN(CC)CCOc1nc(-c2nccn2C)nc2sc(-c3ccccc3)c(-c3ccccc3)c12 [drawing 3573] | 25 to 50 | 51 to 75 | 25 to 50 |
| Cn1ccnc1-c1nc(NCCCO)c2c(-c3ccccc3)c(-c3ccccc3)sc2n1 [drawing 3579] | 51 to 75 | 25 to 50 | 25 to 50 |
| Cn1ccnc1-c1nc(NCCOC(F)(F)F)c2c(-c3ccccc3)c(-c3ccccc3)sc2n1 [drawing 3568] | 25 to 50 | 25 to 50 | 1 to 25 |
| COCCNc1nc(-c2cn(C)cn2)nc2sc(C)c(-c3ccccc3)c12 [drawing 3585] | 25 to 50 | 51 to 75 | 25 to 50 |
| COCCNc1nc(-c2ccncn2)nc2sc(-c3ccccc3)c(-c3ccccc3)c12 [drawing 3574] | 0 | 1 to 25 | 1 to 25 |
| COCCN(C)c1nc(-c2nccn2C)nc2sc(-c3ccccc3)c(-c3ccccc3)c12 [drawing 3566] | 51 to 75 | 51 to 75 | 25 to 50 |
| COCCNc1nc(-c2nccn2C)nc2sc(-c3ccccc3)c(-c3ccccc3Cl)c12 [drawing 3580] | 25 to 50 | 1 to 25 | 25 to 50 |
| COCCNc1nc(-c2nccn2C)nc2sc(-c3cccc(OC)c3)c(-c3ccccc3)c12 [drawing 3586] | 25 to 50 | 25 to 50 | 1 to 25 |
| COc1nc(-c2ccccn2)nc(Oc2cccc(C(F)(F)F)c2)c1O [drawing 3565] | 51 to 75 | 1 to 25 | 25 to 50 |
| COC(C)(C)c1ccc(-c2csc3c(O)nc(-c4nccn4C)nc23)cc1 [drawing 3618] | 25 to 50 | 25 to 50 | 0 |
| COCCNc1nc(-c2cccc(N)n2)nc2sc(-c3ccccc3)c(-c3ccccc3)c12 [drawing 3591] | 0 | 0 | 1 to 25 |
| Cn1ccnc1-c1nc(NCCOC2CC2)c2c(-c3ccccc3)c(-c3ccccc3)sc2n1 [drawing 3576] | 1 to 25 | 25 to 50 | 25 to 50 |
| COCCNc1nc(-c2cn(C)cn2)nc2sc(-c3ccccc3)c(-c3ccccc3)c12 [drawing 3583] | 25 to 50 | 51 to 75 | 25 to 50 |
| COCCNc1nc(-c2nccn2C)nc2sc(C3CCOCC3)c(-c3ccccc3)c12 [drawing 3590] | 51 to 75 | 51 to 75 | 25 to 50 |
| Cn1cnc(-c2nc(O)c3scc(-c4cccc(C(F)(F)F)c4)c3n2)c1 [drawing 3604] | 25 to 50 | 51 to 75 | 25 to 50 |
| CC(C)COc1ccc(-c2csc3c(O)nc(-c4cn(C)cn4)nc23)cn1 [drawing 3605] | 1 to 25 | 25 to 50 | 25 to 50 |

| SMILES | inhibition at 20 µM (KRas G12D mutant protein) [%] | inhibition at 20 µM (KRas wild type) [%] | inhibition at 20 µM (KRas G12C mutant) [%] |
| --- | --- | --- | --- |
| COCCNc1nc(-c2nccn2C)nc2sc(C)c(-c3ccccc3)c12 [drawing 3584] | 51 to 75 | 51 to 75 | 51 to 75 |
| CC(C)OCCNc1nc(-c2nccn2C)nc2sc(-c3ccccc3)c(-c3ccccc3)c12 [drawing 3567] | 51 to 75 | 51 to 75 | 51 to 75 |
| CC(C)COc1ccc(-c2c(-c3ccccc3)sc3c(O)nc(-c4nccn4C)nc23)cn1 [drawing 3587] | 51 to 75 | 51 to 75 | 25 to 50 |
| CCOCCNc1nc(-c2nccn2C)nc2sc(-c3ccccc3)c(-c3ccccc3)c12 [drawing 3575] | 51 to 75 | 51 to 75 | 51 to 75 |
| COCC(C)Nc1nc(-c2nccn2C)nc2sc(-c3ccccc3)c(-c3ccccc3)c12 (stereo not drawn) [drawing 3577] | 1 to 25 | 1 to 25 | 1 to 25 |
| Oc1nc(-c2ncccn2)nc2c(-c3cccc(C(F)(F)F)c3)csc12 [drawing 3608] | 25 to 50 | 51 to 75 | 25 to 50 |
| CCOCCOc1nc(-c2nccn2C)nc2sc(-c3ccccc3)c(-c3ccccc3)c12 [drawing 3572] | 1 to 25 | 25 to 50 | 0 |
| COCCNc1nc(-c2nccn2C)nc2sc(-c3ccccc3)c(-c3ccccn3)c12 [drawing 3622] | 25 to 50 | 51 to 75 | 25 to 50 |
| Cn1cnc(-c2nc(O)c3scc(-c4cccc(OC(F)(F)F)c4)c3n2)c1 [drawing 3606] | 25 to 50 | 25 to 50 | 1 to 25 |
| CC(C)COc1ccc(-c2csc3c(O)nc(-c4nccn4C)nc23)cn1 [drawing 3612] | 76 to 100 | 25 to 50 | 25 to 50 |
| COCCNc1nc(-c2nccn2C)nc2sc(-c3ccccc3Cl)c(-c3ccccc3)c12 [drawing 3581] | 1 to 25 | 1 to 25 | 1 to 25 |
| COCCNc1nc(-c2nccn2C)nc2sc(-c3ccccc3)c(-c3ccncc3)c12 [drawing 3596] | 51 to 75 | 51 to 75 | 25 to 50 |
| COCCCNc1nc(-c2nccn2C)nc2sc(-c3ccccc3)c(-c3ccccc3)c12 [drawing 3570] | 51 to 75 | 51 to 75 | 51 to 75 |
| COC1CCN(c2nc(-c3nccn3C)nc3sc(-c4ccccc4)c(-c4ccccc4)c23)C1 (stereo not drawn) [drawing 3571] | 51 to 75 | 25 to 50 | 1 to 25 |
| Oc1nc(-c2ccncn2)nc2c(-c3cccc(C(F)(F)F)c3)csc12 [drawing 3607] | 1 to 25 | 25 to 50 | 25 to 50 |
| COCCNc1nc(-c2nccn2C)nc2sc(-c3ccc(OC)cc3)c(-c3ccccc3)c12 [drawing 3597] | 25 to 50 | 1 to 25 | 1 to 25 |

The next lines start with the values.

| inhibition at 20 µM (KRas G12D mutant protein) [%] | inhibition at 20 µM (KRas wild type) [%] | inhibition at 20 µM (KRas G12C mutant) [%] | SMILES |
| --- | --- | --- | --- |
| 25 to 50 | 25 to 50 | 1 to 25 | CC(C)Oc1ccc(-c2c(-c3ccccc3)sc3c(O)nc(-c4nccn4C)nc23)cc1F [drawing 3611] |
| 25 to 50 | 25 to 50 | 25 to 50 | CC(C)Oc1ccc(-c2csc3c(O)nc(-c4nccn4C)nc23)cc1F [drawing 3609] |
| 1 to 25 | 1 to 25 | 25 to 50 | Cn1ccnc1-c1nc(O)c2scc(-c3ccc(C(C)(C)C)cc3)c2n1 [drawing 3619] |
| 25 to 50 | 25 to 50 | 25 to 50 | Cc1sc2c(O)nc(-c3nccn3C)nc2c1-c1ccccc1 [drawing 3594] |
| 25 to 50 | 25 to 50 | 25 to 50 | Cn1ccnc1-c1nc(O)c2scc(-c3cccc(Cl)c3)c2n1 [drawing 3617] |
| 51 to 75 | 25 to 50 | 1 to 25 | Cn1ccnc1-c1nc(O)c2scc(-c3cccc(OC(F)(F)F)c3)c2n1 [drawing 3603] |
| 1 to 25 | 1 to 25 | 1 to 25 | Cc1sc2c(O)nc(-c3nccn3C)nc2c1-c1ccc(OCC(C)C)nc1 [drawing 3600] |
| 51 to 75 | 25 to 50 | 51 to 75 | Cn1ccnc1-c1nc(O)c2sc(-c3ccccc3)c(-c3ccccc3Cl)c2n1 [drawing 3595] |
| 25 to 50 | 1 to 25 | 1 to 25 | Cn1ccnc1-c1nc(O)c2scc(-c3ccc(F)cc3F)c2n1 [drawing 3616] |
| 51 to 75 | 25 to 50 | 25 to 50 | COc1ccc(-c2csc3c(O)nc(-c4nccn4C)nc23)cn1 [drawing 3613] |
| 25 to 50 | 25 to 50 | 1 to 25 | Cn1ccnc1-c1nc(O)c2scc(-c3cccc(C(F)(F)F)c3)c2n1 [drawing 3598] |
| 1 to 25 | 1 to 25 | 1 to 25 | Cc1sc2c(O)nc(-c3nccn3C)nc2c1-c1ccc(F)cc1F [drawing 3621] |
| 25 to 50 | 25 to 50 | 25 to 50 | Cn1ccnc1-c1nc(O)c2scc(-c3ccccc3Cl)c2n1 [drawing 3615] |
| 1 to 25 | 1 to 25 | 1 to 25 | Cc1sc2c(O)nc(-c3nccn3C)nc2c1-c1cccc(C(F)(F)F)c1 [drawing 3599] |
| 25 to 50 | 25 to 50 | 1 to 25 | Cc1ccccc1-c1c(C)sc2c(O)nc(-c3nccn3C)nc12 |
| 51 to 75 | 25 to 50 | 1 to 25 | Cc1sc2c(O)nc(-c3nccn3C)nc2c1-c1ccc(OC(C)C)c(F)c1 [drawing 3610] |
| 1 to 25 | 1 to 25 | 1 to 25 | COc1ccc(-c2c(C)sc3c(O)nc(-c4nccn4C)nc23)cn1 [drawing 3601] |
| 1 to 25 | 1 to 25 | 1 to 25 | COc1ccc(-c2c(-c3ccccc3)sc3c(O)nc(-c4nccn4C)nc23)cn1 [drawing 3593] |
